In patent US8206732B2, “Pyrithione biocides enhanced by silver, copper, or zinc ions” (Arch Chemicals, Inc., priority 1999, dated 2012):
Values joined by “and” are separate entries in the source; they are usually repeats but may differ in a detail not shown here. Equal values may be shown once. Blank lines part the entries; values can stand above or below the compound they belong to.

Key:
[1] = tested on: Staphylococcus aureus 27217; test: Checkerboard MIC test, pyrithiones with silver salts; format: cell-based; details: silver ion alone or in the inhibitory mixture; TSB pH 7.3, 35° C., 1 to 2 days
two cultures of fungi = test: Challenge test in soluble oil metalworking fluid, fungi (Example 6); format: cell-based; details: soluble oil MWF, 10 ppm Zn, 100 ppm NaPT, 50 ppm ZPT or 50 ppm CuPT as in column head
[2] = tested on: Pseudomonas aeruginosa ATCC 9027; test: MIC in Tryptic Soy Broth, microtiter (Example 1); format: cell-based; details: TSB, 28° C., incubated 5-6 days; single agent (NaPT without Cu)
[3] = tested on: Aspergillus niger ATCC 6275; test: MIC in Tryptic Soy Broth, microtiter (Example 1); format: cell-based
[4] = tested on: seven cultures of bacteria; test: Challenge test in soluble oil metalworking fluid, bacteria (Example 6); format: cell-based; details: soluble oil MWF, 10 ppm Zn, 100 ppm NaPT, 50 ppm ZPT or 50 ppm CuPT as in column head
[5] = tested on: Escherichia coli ATCC 10536; test: Zone of inhibition test (paper disc on TSA); format: cell-based; details: 6.5 mm discs; 0.135% pyrithione, 0.1% ZnCl2 or both; 28° C., 24 hr
[6] = tested on: Staphylococcus aureus ATCC 27217; test: Checkerboard MIC test, pyrithiones with zinc salts; format: cell-based; details: TSB, 28 C, 3 days
[7] = tested on: Pseudomonas aeruginosa NCIMB 6749; test: Checkerboard MIC test, pyrithiones with zinc salts; format: cell-based; details: TSB, 28 C, 3 days
Fusarium sp. = test: Checkerboard MIC test, pyrithiones with zinc salts; format: cell-based; details: TSB, 28 C, 5 days
Experimental: Mixtures of pyrithione and zinc or silver in various proportions were tested for relative efficacy by a modification of the procedure described by Dougherty, et al.
Equal volumes of bacteria (10^6 cells/ml) or fungi (10^5 spores/ml) were added to each microtiter plate well. The plates were incubated at 28 C for 3 days (bacteria) or 5 days (fungi), and the minimum inhibitory concentration (MIC) of biocide was determined. The Fractional Inhibitory Concentration (FIC=concentration of biocide in an inhibitory mixture divided by the MIC of the pure biocide) was determined, and the FIC Index (sum of the two FIC's) was calculated. The type of interaction was categorized according to the magnitude of the Index: Synergistic (<1), Additive (1), or Antagonistic (>1).

[8] = tested on: Staphylococcus aureus ATCC 27217; test: Zone of inhibition test (paper disc on TSA); format: cell-based; details: 6.5 mm discs; 0.135% pyrithione, 0.1% ZnCl2 or both; 28° C., 24 hr
[9] = tested on: Pseudomonas aeruginosa NCIMB 6749; test: Zone of inhibition test (paper disc on TSA); format: cell-based; details: 6.5 mm discs; 0.135% pyrithione, 0.1% ZnCl2 or both; 28° C., 24 hr
Ps. aeruginosa ATCC 9027 = test: Checkerboard MIC test, pyrithiones with zinc salts; format: cell-based, Pseudomonas aeruginosa; details: Zn(II) from ZnO, alone or in the inhibitory mixture; TSB, 28 C, 3 days
[10] = tested on: Aspergillus niger ATCC 6275; test: Checkerboard MIC test, pyrithiones with zinc salts; format: cell-based; details: Zn(II) from ZnO, alone or in the inhibitory mixture; TSB, 28 C, 5 days
E. coli 8739 biofilm = test: Viable biofilm cells on discs in metalworking fluid (Example 5); format: cell-based, Escherichia coli; details: 10% TSB, polycarbonate disc; 100 PPM NaPT, 10 PPM Zn (II) or both; 4 days after treatment
[11] = tested on: E. coli 8739 free-living cells; test: Viable free-living cells in bulk metalworking fluid (Example 5); format: cell-based, Escherichia coli; details: 10% TSB; 100 PPM NaPT, 10 PPM Zn (II) or both; 4 days after treatment
Fusarium sp. biofilm = test: Viable biofilm cells on discs in metalworking fluid (Example 5); format: cell-based; details: polycarbonate disc, 100 PPM NaPT, 10 PPM Zn (II) or both, 4 days after treatment
Experimental: (§1) Experiments were conducted to investigate the efficacy of the composition of the present invention to inhibit the survival, growth, and proliferation of free-living and biofilm populations of bacteria and fungi in metalworking fluids. […] Metalworking fluids (MWF) employed included 5% soluble oil MWF, 5% semi-synthetic MWF, or 5% synthetic MWS. For testing against bacteria, metalworking fluids were supplemented with 2% (weight-to-weight ratio (w:w)) of 5 g/L yeast extract (Difco), Metalworking fluids were supplemented with 2% (weight-to-weight (w:w)) of Tryptic Soy Broth (Difco) for fungal tests.
(§2) For each experiment, three ml of a 5% metalworking fluid was added to each of twelve, sterile, 16 mm×150 mm glass culture tubes. […] Fusarium sp. was added to the tubes to final concentrations of 10^5 spores/ml for the fungal tests. Tubes incubated for 3 days at 28° C. and 180 rpms.
(§3) After the treatments additions were performed, the culture tubes resumed incubation at 28° C., 180 rpms for an additional 4 days.
(§4) After 4 days, culture tubes were removed from the incubator and viable counts of organisms from the bulk MWF fluid and the biofilm were determined using serial dilution and drop plating techniques. For biofilms, polycarbonate discs were removed from tubes, dip-rinsed in three successive washes of de-ionized water to remove loosely attached cells, and transferred to 25 mm×150 mm culture tubes containing 10 ml of sterile, de-ionized water. Biofilms were removed from discs and resuspended by vortexing tubes for 30 seconds. Bacteria were plated on to R2A Agar plates and incubated at 37° C. Fungi were plated onto Malt Agar plates and incubated at 28° C. Mean colony forming units per ml (for bulk) and per square cm (cm^2) biofilm were determined for each experimental treatment.

[12] = tested on: Fusarium sp. and Cephalosporium sp.; test: Various mixtures of NaPT and Zn(II) against fungi in 5% metalworking fluid (Example 8, Table 10b); format: cell-based
[13] = tested on: mixed bacteria (Pseudomonas aeruginosa 9027, Escherichia coli 8739, Pseudomonas fluorescens 12201, Pseudomonas rubescens 12202, Pseudomonas putida); test: Various mixtures of NaPT and Zn(II) against bacteria in 5% metalworking fluid (Example 8, Table 10a); format: cell-based, Pseudomonas spp.
[14] = tested on: Fusarium sp. free-living cells; test: Viable free-living cells in bulk metalworking fluid (Example 5); format: cell-based; details: 100 PPM NaPT, 10 PPM Zn (II) or both, 4 days after treatment
Experimental: as §1, §2, §3, §4

[15] = pyrithione alone or pyrithione concentration in the inhibitory mixture
[16] = semi-synthetic, Zn (II) 10 PPM, Day 1
[17] = semi-synthetic, Zn (II) 10 PPM, Day 2
[18] = semi-synthetic, Zn (II) 10 PPM, Day 7
[19] = semi-synthetic, Zn (II) 20 PPM, Day 1
[20] = semi-synthetic, Zn (II) 20 PPM, Day 2
[21] = semi-synthetic, Zn (II) 20 PPM, Day 7
[22] = semi-synthetic, Zn (II) 30 PPM, Day 1
[23] = semi-synthetic, Zn (II) 30 PPM, Day 2
[24] = semi-synthetic, Zn (II) 30 PPM, Day 7
[25] = semi-synthetic, Zn (II) 100 PPM, Day 1
[26] = semi-synthetic, Zn (II) 100 PPM, Day 4
[27] = semi-synthetic, Zn (II) 500 PPM, Day 1
[28] = semi-synthetic, Zn (II) 500 PPM, Day 4
[29] = synthetic, Zn (II) 10 PPM, Day 1
[30] = synthetic, Zn (II) 20 PPM, Day 1
[31] = Zn(II) alone or Zn(II) concentration in the inhibitory mixture

- MIC Ag^+1 Ion [1]: 29.8 ppm
SMILES: [Ag+].[Ag+].[O-2] [Ag2O]

SMILES: On1ccccc1=S.On1ccccc1=S.[Cu] [CuPT2, copper pyrithione]
- FUNGI (cfu/ml) (two cultures of fungi; DAY 0): 2.4 × 10^5 cfu/ml
- FUNGI (cfu/ml) (two cultures of fungi; DAY 6): 1000 cfu/ml
- FUNGI (cfu/ml) (two cultures of fungi; DAY 13): 680 cfu/ml
- FUNGI (cfu/ml) (two cultures of fungi; DAY 20): 370 cfu/ml
- MIC [2]: >1024 ppm
- molar MIC ([3]; Aspergillus niger): 51 µM
- MIC ([3]; TSB, 28° C., incubated 7-8 days, single agent (NaPT without Cu)): 16 ppm
- BACTERIA (cfu/ml) ([4]; DAY 0): 3.2 × 10^7 cfu/ml
- BACTERIA (cfu/ml) ([4]; DAY 6): 1.5 × 10^7 cfu/ml
- BACTERIA (cfu/ml) ([4]; DAY 13): 9.7 × 10^6 cfu/ml
- BACTERIA (cfu/ml) ([4]; DAY 20): 1.9 × 10^6 cfu/ml

SMILES: O.O.O.O=S(=O)([O-])[O-].[Mg+2].[O-][n+]1ccccc1SSc1cccc[n+]1[O-] [MDS, MgSO4.3H2O adduct of 2,2′-dithiopyridine-1,1′-dioxide]
- Zone of Inhibition [5]: 31 mm
- MIC Pyrithione [6, 15]: 8 ppm
- MIC Pyrithione [7, 15]: 1024 ppm
- MIC Pyrithione (Fusarium sp.; [15]): >1843 ppm
- Zone of Inhibition [8]: 28 mm
- Zone of Inhibition [9]: 0 mm

SMILES: [Cl-].[Cl-].[Zn+2] [ZnCl2]
- Zone of Inhibition [5]: 0 mm
- Zone of Inhibition [8]: 0 mm
- Zone of Inhibition [9]: 0 mm

- MIC Zn(II) (Ps. aeruginosa ATCC 9027): >1645 ppm
- MIC Zn(II) [10]: >1645 ppm
SMILES: [O]=[Zn] [ZnO]

SMILES: O=S(=O)([O-])[O-].[Zn+2] [ZnSO4]
- viable biofilm microorganisms (E. coli 8739 biofilm): 6.5 × 10^5 cells/cm^2
- viable free-living microorganisms [11]: 5.8 × 10^8 cells/ml
- viable biofilm microorganisms (Fusarium sp. biofilm; 5% semisynth. MWF): 27 cells/cm^2
- viable biofilm microorganisms (Fusarium sp. biofilm; 5% synthetic MWF): 1.4 × 10^5 cells/cm^2
- viable biofilm microorganisms (Fusarium sp. biofilm; 100% TSB): 3.3 × 10^4 cells/cm^2
- Fungi/ml [12, 16]: 1.0 × 10^4 Fungi/ml
- Fungi/ml [12, 17]: 5.0 × 10^3 Fungi/ml
- Fungi/ml [12, 18]: 4.8 × 10^2 Fungi/ml
- Fungi/ml [12, 19]: 1.2 × 10^4 Fungi/ml
- Fungi/ml [12, 20]: 1.6 × 10^4 Fungi/ml
- Fungi/ml [12, 21]: 4.0 × 10^3 Fungi/ml
- Fungi/ml [12, 22]: 1.2 × 10^4 Fungi/ml
- Fungi/ml [12, 23]: 1.5 × 10^4 Fungi/ml
- Fungi/ml [12, 24]: 1.3 × 10^3 Fungi/ml
- Fungi/ml [12, 25]: 3.3 × 10^4 Fungi/ml
- Fungi/ml [12, 26]: 1.1 × 10^4 Fungi/ml
- Fungi/ml [12, 27]: 4.4 × 10^4 Fungi/ml
- Fungi/ml [12, 28]: 2.0 × 10^4 Fungi/ml
- Fungi/ml ([12]; semi-synthetic, Zn (II) 1000 PPM, Day 1): 4.1 × 10^4 Fungi/ml
- Fungi/ml ([12]; semi-synthetic, Zn (II) 1000 PPM, Day 4): 1.0 × 10^4 Fungi/ml
- Fungi/ml [12, 29]: 7.5 × 10^4 Fungi/ml
- Fungi/ml ([12]; synthetic, Zn (II) 10 PPM, Day 2): 3.1 × 10^4 Fungi/ml
- Fungi/ml ([12]; synthetic, Zn (II) 10 PPM, Day 7): 1.4 × 10^4 Fungi/ml
- Fungi/ml [12, 30]: 3.9 × 10^4 Fungi/ml
- Fungi/ml ([12]; synthetic, Zn (II) 20 PPM, Day 2): 2.2 × 10^4 Fungi/ml
- Fungi/ml ([12]; synthetic, Zn (II) 20 PPM, Day 7): 1.3 × 10^4 Fungi/ml
- Fungi/ml ([12]; synthetic, Zn (II) 30 PPM, Day 1): 4.2 × 10^4 Fungi/ml
- Fungi/ml ([12]; synthetic, Zn (II) 30 PPM, Day 2): 2.1 × 10^4 Fungi/ml
- Fungi/ml ([12]; synthetic, Zn (II) 30 PPM, Day 7): 5.0 × 10^3 Fungi/ml
- Fungi/ml ([12]; synthetic, Zn (II) 100 PPM, Day 1): 2.1 × 10^4 Fungi/ml
- Fungi/ml ([12]; synthetic, Zn (II) 100 PPM, Day 4): 6.0 × 10^3 Fungi/ml
- Fungi/ml ([12]; synthetic, Zn (II) 500 PPM, Day 1): 9.0 × 10^3 Fungi/ml
- Fungi/ml ([12]; synthetic, Zn (II) 500 PPM, Day 4): 5.0 × 10^3 Fungi/ml
- Fungi/ml ([12]; synthetic, Zn (II) 1000 PPM, Day 1): 4.0 × 10^3 Fungi/ml
- Fungi/ml ([12]; synthetic, Zn (II) 1000 PPM, Day 4): 2.0 × 10^3 Fungi/ml
- Fungi/ml ([12]; synthetic, Zn (II) 5000 PPM, Day 1): 2.0 × 10^3 Fungi/ml
- Fungi/ml ([12]; synthetic, Zn (II) 5000 PPM, Day 4): 4.0 × 10^3 Fungi/ml
- MIC Zn(II) [6, 31]: 200 ppm
- MIC Zn(II) [7, 31]: >200 ppm and <200 ppm
- MIC Zn(II) (Fusarium sp.; [31]): >200 ppm and <200 ppm
- Bacteria/ml [13, 16]: 170 Bacteria/ml
- Bacteria/ml [13, 17]: 3.2 × 10^5 Bacteria/ml
- Bacteria/ml [13, 18]: 4.8 × 10^4 Bacteria/ml
- Bacteria/ml [13, 19]: 1.5 × 10^5 Bacteria/ml
- Bacteria/ml [13, 20]: 1.4 × 10^4 Bacteria/ml
- Bacteria/ml [13, 21]: 4.0 × 10^3 Bacteria/ml
- Bacteria/ml [13, 22]: 1.7 × 10^3 Bacteria/ml
- Bacteria/ml [13, 23]: 1.5 × 10^5 Bacteria/ml
- Bacteria/ml [13, 24]: 1.3 × 10^5 Bacteria/ml
- Bacteria/ml [13, 25]: 4.9 × 10^4 Bacteria/ml
- Bacteria/ml [13, 26]: 5.7 × 10^4 Bacteria/ml
- Bacteria/ml [13, 27]: 9.5 × 10^4 Bacteria/ml
- Bacteria/ml [13, 28]: 1.1 × 10^5 Bacteria/ml
- Bacteria/ml [13, 29]: 30 Bacteria/ml
- Bacteria/ml [13, 30]: 190 Bacteria/ml
- viable free-living microorganisms ([14]; 5% semisynth. MWF): 4.6 × 10^5 cells/ml
- viable free-living microorganisms ([14]; 5% synthetic MWF): 8.7 × 10^6 cells/ml
- viable free-living microorganisms ([14]; 100% TSB): 3.4 × 10^6 cells/ml
